Results published in ChEMBL document CHEMBL2046380, “Synthesis and structure-activity relationship of disubstituted benzamides as a novel class of antimalarial agents” (Bioorg Med Chem Lett, 2012).

Experiments:
Plasmodium falciparum [1] = experiment: Antimalarial activity against […] incubated for 72 hrs by DNA staining based MARK1 growth inhibition assay; type: functional, organism-based
HEK293 = experiment: Cytotoxicity against human HEK293 cells after 72 hrs by […] CellTiterGlo reagent assay; type: cell-based; details: HEK293, 72 h
BJ = experiment: Cytotoxicity against human BJ cells after 72 hrs by […] CellTiterGlo reagent assay; type: cell-based
Raji = experiment: Cytotoxicity against human Raji cells after 72 hrs by […] CellTiterGlo reagent assay; type: cell-based
Plasmodium falciparum [2] = experiment: Antimalarial activity against chloroquine-sensitive Plasmodium falciparum 3D7 incubated for 72 hrs by DNA staining based MAR3D7 growth inhibition assay; type: functional, organism-based; details: 3D7, 72 h
HepG2 = experiment: Cytotoxicity against human HepG2 cells after 72 hrs by […] CellTiterGlo reagent assay; type: cell-based; details: HepG2, 72 h

SMILES	EC50 (Plasmodium falciparum [1]) [µM]	EC50 (HEK293) [µM]	EC50 (BJ) [µM]	EC50 (Raji) [µM]	EC50 (Plasmodium falciparum [2]) [µM]	EC50 (HepG2) [µM]
CC(C)(C)OC(=O)NCC(OC(=O)C(O)CO)c1ccc2c(c1)OCO2 (centres undefined)	> 7.51	> 13	> 13	> 13	> 7.51	> 13
COc1cc(F)cc(-c2ccc(C(=O)N(Cc3cccc(OCCCCCC(=O)O)c3)C(C)C)cc2)c1	> 15	> 26	> 26	> 26	> 15	> 26
CCOC(=O)CCCCCOc1cccc(CN(C(=O)c2ccc(-c3cc(C(F)(F)F)cc(C(F)(F)F)c3)cc2)C(C)C)c1	> 15	> 26	> 26	> 26	> 15	> 26
CCCNCc1ccccc1OCCCCCC(=O)OCC	> 15	> 26	> 26	> 26	> 15	> 26
CCOC(=O)CCCCCOc1ccc(C(O)O)cc1	> 15	> 27.2	> 27.2	> 27.2	> 15	> 27.2
COC(=O)CCCC1=NCCc2cc(OC)c(OC)cc21	> 7.51	> 13	> 13	> 13	> 7.51	> 13
CC(C)N(Cc1cccc(OCCCCCC(=O)O)c1)C(=O)c1ccc(-c2cccc3ccccc23)cc1	> 15	> 26	–	> 26	> 15	> 26
CCCN(Cc1ccc(OCCCCCC(=O)O)cc1)C(=O)c1ccc(-c2ccc3c(c2)OCO3)cc1	0.928	> 26	> 26	> 26	> 15	> 26
Cc1nnc(-c2cccc(-c3ccc(C(=O)N(Cc4cccc(OCCCCCC(=O)O)c4)C(C)C)cc3)c2)o1	> 15	> 26	> 26	> 26	> 15	> 26
CCOC(=O)CCCCCOc1cccc(CN(C(=O)c2ccc(-c3cnc(OC)nc3OC)cc2)C(C)C)c1	> 15	> 26	> 26	> 26	> 15	> 26
CCCN(Cc1ccc(OCCCCCC(=O)OCC)cc1)C(=O)c1ccc(Br)cc1	> 15	> 26	> 26	> 26	> 15	> 26
COc1ccc(F)c(-c2ccc(C(=O)N(Cc3cccc(OCCCCCC(=O)O)c3)C(C)C)cc2)c1	> 15	> 26	> 26	> 26	> 15	> 26
CCOC(=O)CCCCCOc1cccc(CN(C(=O)c2ccc(-c3cn(S(=O)(=O)c4ccccc4)c4ccccc34)cc2)C(C)C)c1	> 15	> 26	> 26	> 26	> 15	> 26
CC(=O)c1cccc(-c2ccc(C(=O)N(Cc3cccc(OCCCCCC(=O)O)c3)C(C)C)cc2)c1	> 15	> 26	> 26	> 26	< 0.0004	> 26
CC(C)N(Cc1cccc(OCCCCCC(=O)O)c1)C(=O)c1ccc(-c2cccc(N(C)C)c2)cc1	> 15	> 26	> 26	> 26	> 15	> 26
CCOC(=O)CCCCCOc1cccc(CN(C(=O)c2ccc(-c3cccc([N+](=O)[O-])c3)cc2)C(C)C)c1	> 15	> 26	–	> 26	> 15	> 26
CCOC(=O)CCCCCOc1cccc(CN(C(=O)c2ccc(-c3cccc(C(F)(F)F)c3)cc2)C(C)C)c1	> 15	> 26	–	> 26	> 15	> 26
